Laboratory results published in the supplement of paper PMC9436093.
± gives the standard deviation of the averaged measurements.

Columns and labels:
Assay in all cases: cell viability relative to DMSO (100%) and bortezomib (0%) controls; higher = more viable / less sensitive
Conditions in all cases: 72 h
[1] = test system: HAP1 HDAC1 KO + HDAC1 H141A transgene
Description: (§1)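 HAP1 cells (wildtype, HDAC1/2/3 catalytically inactive H>A mutant lines in wildtype or knockout background, HDAC3 KO, or wildtype pre-treated 6 h with 1 uM MS-275 or JQ12) were seeded onto compound-containing 384-well plates with an 8-point 1:3 dose series. ATP was read by CellTiter-Glo after 72 h. Viability is normalised to plate DMSO wells (100%) and bortezomib positive-control wells (0%) after outlier removal. Duplicate screen.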

[2] = test system: HAP1 HDAC2 KO + HDAC2 H142A transgene
Description: as §1

[3] = test system: HAP1 HDAC3 KO + HDAC3 H135A transgene
Description: as §1

HAP1 HDAC3 KO = test system: HAP1 HDAC3 KO
Description: as §1

[4] = test system: HAP1 WT + HDAC1 H141A transgene
Description: as §1

[5] = test system: HAP1 WT + HDAC2 H142A transgene
Description: as §1

[6] = test system: HAP1 WT + HDAC3 H135A transgene
Description: as §1

[7] = test system: HAP1 wildtype + JQ12 1 uM (6 h pretreatment)
Description: as §1

[8] = test system: HAP1 wildtype + MS-275 1 uM (6 h pretreatment)
Description: as §1

HAP1 wildtype = test system: HAP1 wildtype
Description: as §1

Cn1cc(-c2ccc(S(=O)(=O)n3ccc(/C=C/C(=O)Nc4ccccc4N)c3)cc2)cn1 [4SC-202]
cell viability [%]
Conditions | HAP1 HDAC3 KO | HAP1 wildtype | [1] | [2] | [3] | [4] | [5] | [6] | [7] | [8]
0.0123 µM | 120 ± 38 | 105 ± 24 | 137 ± 18 | 125 ± 33 | 130 ± 50 | 125 ± 28 | 141 ± 42 | 140 ± 43 | 123 ± 66 | 168 ± 130
0.037 µM | 95.7 ± 7.3 | 88.7 ± 5.6 | 106 ± 39 | 108 ± 3.5 | 85.68 ± 0.55 | 85.5 ± 1.8 | 78.14 ± 0.11 | 89.7 ± 9.2 | 113 ± 11 | 112 ± 37
0.111111111 µM | 127 ± 54 | 120 ± 29 | 109 ± 5.8 | 157 ± 110 | 109 ± 33 | 110 ± 25 | 135 ± 49 | 128 ± 63 | 133 ± 33 | 121 ± 38
0.333333333 µM | 122.3 ± 1.1 | 98.9 ± 1.9 | 111 ± 37 | 93.36 ± 0.46 | 104 ± 3.4 | 117 ± 7.7 | 117 ± 14 | 133 ± 4.1 | 98.5 ± 32 | 123 ± 46
1 µM | 11.2 ± 25 | 22.3 ± 15 | 7.79 ± 24 | 82.3 ± 12 | -3.64 ± 1.4 | -2.58 ± 5.3 | -0.0563 ± 4.5 | 6.41 ± 21 | 10.9 ± 14 | 3.53 ± 4.1
3 µM | -10.7 ± 11 | -0.806 ± 17 | -53.5 ± 14 | -4.75 ± 14 | -11 ± 14 | -21.1 ± 9.2 | -10.7 ± 18 | -13.8 ± 11 | -3.08 ± 16 | -1.84 ± 17
9 µM | -10.9 ± 15 | -6.67 ± 15 | -23.1 ± 58 | -2.31 ± 11 | -9.81 ± 19 | -15.7 ± 21 | -11.2 ± 18 | -10.1 ± 24 | -6.3 ± 2.4 | -6.4 ± 12
27 µM | -5.87 ± 3.2 | 2.64 ± 4.1 | 14.2 ± 7.4 | -4.84 ± 8.4 | -4.35 ± 8.3 | -7.2 ± 3.6 | -5.99 ± 2 | -6.44 ± 3.2 | -3.68 ± 0.21 | 0.166 ± 0.23

Nc1ncn([C@H]2C[C@H](O)[C@@H](CO)O2)c(=O)n1 [decitabine]
cell viability [%]
Conditions | HAP1 HDAC3 KO | HAP1 wildtype | [1] | [2] | [3] | [4] | [5] | [6] | [7] | [8]
0.0309 µM | 96.5 ± 4.1 | 104 ± 4.2 | 106 ± 12 | 105.4 ± 0.36 | 100 ± 2.2 | 95.3 ± 11 | 102 ± 5.5 | 105 ± 4.2 | 92.9 ± 0.5 | 107 ± 19
0.0926 µM | 103 ± 14 | 96.6 ± 1.6 | 117 ± 31 | 104 ± 12 | 111 ± 5.4 | 96.2 ± 4.6 | 109 ± 13 | 117 ± 24 | 98 ± 21 | 82.5 ± 1.4
0.277777778 µM | 125 ± 3 | 110 ± 15 | 93.4 ± 6 | 89.47 ± 0.6 | 115 ± 15 | 68.1 ± 4.4 | 80.5 ± 16 | 116 ± 14 | 72.8 ± 14 | 71.3 ± 5.1
0.833333333 µM | 155 ± 35 | 141 ± 42 | 51.5 ± 10 | 37.5 ± 15 | 148 ± 7.7 | 27.2 ± 2.7 | 44.3 ± 6.1 | 153 ± 28 | 50.9 ± 3.7 | 40.43 ± 0.23
2.5 µM | 144 ± 2.4 | 115 ± 6.9 | 24.3 ± 11 | 10.8 ± 22 | 148 ± 8.5 | -11.5 ± 4.7 | 5.61 ± 15 | 119.46 ± 0.096 | 15.9 ± 8.1 | 9.68 ± 4.4
7.5 µM | 112 ± 2.8 | 60.8 ± 8.2 | 0.764 ± 3.8 | 5.27 ± 6.9 | 96.2 ± 3.2 | 0.523 ± 12 | 4.31 ± 9.6 | 49.5 ± 7 | 1.97 ± 1.9 | 9.13 ± 5.5
22.5 µM | 123 ± 26 | 50.1 ± 4.7 | 5.07 ± 11 | -5.41 ± 16 | 114 ± 16 | -11.1 ± 3.6 | 0.159 ± 9.5 | 58.5 ± 8.8 | 3.44 ± 15 | 2.79 ± 8.6
67.5 µM | 147 ± 34 | 47.2 ± 16 | 19.6 ± 15 | 9.97 ± 12 | 108 ± 12 | 1.73 ± 12 | 7.07 ± 6.5 | 61.2 ± 7.2 | 1.41 ± 4.7 | 10.8 ± 5.8
